Assay results: the supplement of paper PMC4862054
Several values for one entry are separate records, joined by “and”; a condition that tells them apart may be missing. Equal values may be shown once.

Tests used:
BT-549 [1] = experiment: drug sensitivity score (DSS), CellTiter-Glo (DSS (AUC-based score)); higher = stronger drug effect (viability inhibition or cytotoxicity); extreme values may be limits of the assay; conditions: incubation time: 72 h
Summary of the method: (§1)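 Plates with 384 wells held compound at 5 concentrations in 10-fold steps over a 10,000-fold range specific to each compound. Breast cancer cell lines were added in 20 µl suspension and incubated 72 h, then read for CellTox Green and CellTiter-Glo signals, with each plate normalised to 0.1 % DMSO and a positive kill control. The drug sensitivity score is based on the area under the fitted dose-response curve.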

MCF-10A = experiment: as above; conditions: incubation time: 72 h
Summary of the method: as §1

MFM-223 [2] = experiment: as above; conditions: incubation time: 72 h
Summary of the method: as §1

HCC1937 [3] = experiment: as above; conditions: incubation time: 72 h
Summary of the method: as §1

MDA-MB-436 [4] = experiment: as above; conditions: incubation time: 72 h
Summary of the method: as §1

CAL-51 [5] = experiment: normalised viability (% of control), CellTiter-Blue; higher = more viable cells (about 100 = DMSO control); conditions: incubation time: 72 h
Experimental: (§2)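 DSRT, CellTiter-Blue viability, 72 h incubation. Signal is normalised to DMSO and benzethonium chloride controls. Value is the normalised response at dose 3.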

CAL-120 [6] = experiment: as above; conditions: incubation time: 72 h
Experimental: as §2

HCC1599 [7] = experiment: as above; conditions: incubation time: 72 h
Experimental: as §2

MFM-223 [8] = experiment: as above; conditions: incubation time: 72 h
Experimental: as §2

MDA-MB-453 [9] = experiment: as above; conditions: incubation time: 72 h
Experimental: as §2

MDA-MB-231 [10] = experiment: as above; conditions: 10 nM; incubation time: 72 h
Experimental: as §2

Hs578T [11] = experiment: as above; conditions: incubation time: 72 h
Experimental: as §2

MDA-MB-436 [12] = experiment: as above; conditions: incubation time: 72 h
Experimental: as §2

CAL-51 [13] = experiment: normalised viability (% of control), CellTiter-Blue; higher = more viable cells (about 100 = DMSO control); conditions: incubation time: 72 h; remark: listed apart in the source
Summary of the method: (§3)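 The reported figure is normalised viability at a single listed concentration of the series. Breast cancer cell lines (20 µl suspension) went onto 384-well plates holding compound in 5 µl medium for 72 h. CellTiter-Blue (2.5 µl, 2 h, 37 °C) was read by fluorescence at 560/590 nm, and each plate was scaled to vehicle at 100 and a positive kill control at 0.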

CAL-85-1 = experiment: as above; conditions: incubation time: 72 h
Summary of the method: as §3

CAL-148 = experiment: as above; conditions: incubation time: 72 h
Summary of the method: as §3

HDQ-P1 = experiment: as above; conditions: incubation time: 72 h
Summary of the method: as §3

CAL-120 [14] = experiment: as above; conditions: incubation time: 72 h; remark: listed apart in the source
Summary of the method: as §3

BT-549 [15] = experiment: as above; conditions: incubation time: 72 h
Summary of the method: as §3

HCC1599 [16] = experiment: as above; conditions: incubation time: 72 h; remark: listed apart in the source
Summary of the method: as §3

DU-4475 = experiment: as above; conditions: incubation time: 72 h
Summary of the method: as §3

MFM-223 [17] = experiment: as above; conditions: incubation time: 72 h; remark: listed apart in the source
Summary of the method: as §3

SK-BR-3 = experiment: as above; conditions: incubation time: 72 h
Summary of the method: as §3

MDA-MB-453 [18] = experiment: as above; conditions: incubation time: 72 h; remark: listed apart in the source
Summary of the method: as §3

BT-474 = experiment: as above; conditions: incubation time: 72 h
Summary of the method: as §3

HCC1937 [19] = experiment: as above; conditions: incubation time: 72 h
Summary of the method: as §3

MDA-MB-468 = experiment: as above; conditions: incubation time: 72 h
Summary of the method: as §3

Hs578T [20] = experiment: as above; conditions: incubation time: 72 h; remark: listed apart in the source
Summary of the method: as §3

MDA-MB-436 [21] = experiment: as above; conditions: incubation time: 72 h; remark: listed apart in the source
Summary of the method: as §3

MDA-MB-231 [22] = experiment: as above; conditions: 10 nM; incubation time: 72 h; remark: listed apart in the source
Summary of the method: as §3

HCC1143 = experiment: as above; conditions: 10 nM; incubation time: 72 h
Summary of the method: as §3

SMILES: CO[C@H]1C[C@@H]2CC[C@@H](C)[C@@](O)(O2)C(=O)C(=O)N2CCCC[C@H]2C(=O)O[C@H]([C@H](C)C[C@@H]2CC[C@@H](OCCO)[C@H](OC)C2)CC(=O)[C@H](C)/C=C(\C)[C@@H](O)[C@@H](OC)C(=O)[C@H](C)C[C@H](C)/C=C/C=C/C=C/1C [Everolimus]
- drug sensitivity score (BT-549 [1]): 13
- drug sensitivity score (MCF-10A): 0
- drug sensitivity score (MFM-223 [2]): 10.8
- drug sensitivity score (HCC1937 [3]): 8.95
- drug sensitivity score (MDA-MB-436 [4]): 5.1
- normalised viability (CAL-51 [5]; 1 nM): 70.1% and 73.5%
- normalised viability (CAL-120 [6]; 10 nM): 55.3% and 43%
- normalised viability (HCC1599 [7]; 10 nM): 81.1% and 87.6%
- normalised viability (MFM-223 [8]; 10 nM): 55.1% and 49%
- normalised viability (MDA-MB-453 [9]; 1 nM): 44.9% and 39.9%
- normalised viability (MDA-MB-231 [10]): 92.7% and 69.3%
- normalised viability (Hs578T [11]; 10 nM): 42.7% and 48.8%
- normalised viability (MDA-MB-436 [12]; 10 nM): 86% and 80.2%
- normalised viability (CAL-51 [13]; 0.3 nM): 89.6% and 89.8%
- normalised viability (CAL-85-1; 0.3 nM): 73.8% and 72%
- normalised viability (CAL-148; 0.3 nM): 77.8% and 72.2%
- normalised viability (HDQ-P1; 0.3 nM): 84.7% and 79.8%
- normalised viability (CAL-120 [14]; 1 nM): 59.3% and 51.9%
- normalised viability (BT-549 [15]; 1 nM): 64.4% and 54.3%
- normalised viability (HCC1599 [16]; 1 nM): 107% and 111%
- normalised viability (DU-4475; 0.3 nM): 86.3% and 104%
- normalised viability (MFM-223 [17]; 1 nM): 55.5% and 51.7%
- normalised viability (SK-BR-3; 1 nM): 80.9% and 64.3%
- normalised viability (MDA-MB-453 [18]; 0.3 nM): 71.9% and 70%
- normalised viability (BT-474; 1 nM): 76.6% and 65.5%
- normalised viability (HCC1937 [19]; 1 nM): 52.2% and 56.6%
- normalised viability (MDA-MB-468; 1 nM): 72% and 74.4%
- normalised viability (Hs578T [20]; 1 nM): 61% and 59.5%
- normalised viability (MDA-MB-436 [21]; 1 nM): 87.7% and 75.2%

SMILES: Cc1ccc(NC(=O)c2ccc(CN3CCN(C)CC3)cc2)cc1Nc1nccc(-c2cccnc2)n1 [Imatinib]
- drug sensitivity score (BT-549 [1]): 0
- drug sensitivity score (MCF-10A): 0
- drug sensitivity score (MFM-223 [2]): 0
- drug sensitivity score (HCC1937 [3]): 0
- drug sensitivity score (MDA-MB-436 [4]): 0
- normalised viability (CAL-51 [5]; 10 nM): 106% and 107%
- normalised viability (CAL-120 [6]; 100 nM): 87.8% and 94.7%
- normalised viability (HCC1599 [7]; 100 nM): 96.5% and 97.5%
- normalised viability (MFM-223 [8]; 100 nM): 94.8% and 92.4%
- normalised viability (MDA-MB-453 [9]; 10 nM): 104% and 94.3%
- normalised viability (Hs578T [11]; 100 nM): 95.2% and 103%
- normalised viability (MDA-MB-436 [12]; 100 nM): 94.8% and 107%
- normalised viability (CAL-51 [13]; 3 nM): 111% and 108%
- normalised viability (CAL-85-1; 3 nM): 91.5% and 91.4%
- normalised viability (CAL-148; 3 nM): 80.4% and 92.6%
- normalised viability (HDQ-P1; 3 nM): 132% and 110%
- normalised viability (CAL-120 [14]; 10 nM): 81.6% and 90.2%
- normalised viability (BT-549 [15]; 10 nM): 87.7% and 100%
- normalised viability (HCC1599 [16]; 10 nM): 105% and 120%
- normalised viability (DU-4475; 3 nM): 92.2% and 97.2%
- normalised viability (MFM-223 [17]; 10 nM): 95.9% and 112%
- normalised viability (SK-BR-3; 10 nM): 97.5% and 99.9%
- normalised viability (MDA-MB-453 [18]; 3 nM): 129% and 110%
- normalised viability (BT-474; 10 nM): 108% and 112%
- normalised viability (HCC1937 [19]; 10 nM): 89.5% and 92.4%
- normalised viability (MDA-MB-231 [22]): 81% and 98.2%
- normalised viability (MDA-MB-468; 10 nM): 95.9% and 102%
- normalised viability (Hs578T [20]; 10 nM): 106% and 119%
- normalised viability (HCC1143): 79% and 81.2%
- normalised viability (MDA-MB-436 [21]; 10 nM): 117% and 111%
